# Data published in patent publication US10052322B2 (SIGNAL PHARMACEUTICALS, LLC, priority 2013, dated 2018).
# “Also recorded” adds a separate entry of the source. Where two headings read alike, the source gives them in different places.
# Key:
# Format in all cases: physicochemical
# [1] = Hygroscopicity by dynamic vapor sorption (DVS)
# Protocol: Hygroscopicity was determined on a Surface Measurement Systems DVS. Typically a sample size of 2-10 mg was loaded into the DVS instrument sample pan and the sample was analyzed on a DVS automated sorption analyzer at room temperature. […] The relative humidity was then decreased in a similar manner to accomplish a full adsorption/desorption cycle. For selected hydrated forms, the analysis started at 50% RH and increased to 90% RH at 10% RH step. The relative humidity was then decreased in a similar manner to 0% RH followed by increasing to 50% RH.
# [2] = Form transfer / competitive slurry experiments
# Protocol: The resulting mixture was agitated for at least 24 hours at room temperature and 50° C. separately. Upon reaching equilibrium, the saturated supernatant solution was removed and allowed to evaporate slowly in an open vial under nitrogen at room temperature and 50° C., respectively. The solid resulting from the equilibration was filtered and air-dried before analysis.
# [3] = Solubility of Form A in selected aqueous and organic solvents (HPLC); settings: thermodynamic from solid, read-out: Solubility (mg/mL) (room temperature)
# Protocol: Solubility of Form A in selected aqueous and organic solvents was determined by mixing solid with solvents at room temperature. […] Solubility of Form B and Form C in water was also determined by the same HPLC method.
# [4] = Equilibration / slurry experiments of Form A (XRPD)
# Protocol: (§1) All of the solid samples generated in the polymorph screen were analyzed by XRPD. XRPD analysis was conducted on a Thermo ARL X'TRA X-ray powder diffractometer using Cu Kα radiation at 1.54 Å. The instrument was equipped with a fine focus X-ray tube. The voltage and amperage of the X-ray generator were set at 45 kV and 40 mA, respectively. The divergence slits were set at 4 mm and 2 mm and the measuring slits were set at 0.5 mm and 0.2 mm. Diffracted radiation was measured using a Peltier-cooled Si (Li) solid-state detector. A theta-two theta continuous scan at 2.40/min (0.5 sec/0.02° step) from 1.5° to 40° 2θ was used. A sintered alumina standard was used to check the peak positions. […] The resulting mixture was agitated for at least 24 hours at room temperature and 50° C. separately. Upon reaching equilibrium, the saturated supernatant solution was removed and allowed to evaporate slowly in an open vial under nitrogen at room temperature and 50° C., respectively. The solid resulting from the equilibration was filtered and air-dried before analysis.
# [5] = Evaporation experiments (XRPD); settings: evaporation at 50° C.
# Protocol: as §1
# [6] = humidity from about 0% to about 50% RH at about 25° C.
# [7] = humidity from about 0% to about 95% RH at about 25° C.
# [8] = humidity increased from about 0% to about 80% RH
# [9] = humidity increased from about 80% to about 90% RH
# [10] = slurry in MeOH/water (1:1), seed None, 1 week
smiles,measurement,setting,value
"CCN1C(=O)CNc2ncc(-c3ccc(-c4nnc[nH]4)nc3C)nc21 [Form B, 1-ethyl-7-(2-methyl-6-(1H-1,2,4-triazol-3-yl)pyridin-3-yl)-3,4-dihydropyrazino[2,3-b]pyrazin-2(1H)-one]",Moisture sorption (wt % at 90% RH),[1]; listed as B,20.7 wt %
same,XRPD Result,"[2]; slurry in Acetonitrile, seed None, 3 days",Form A
"CCN1C(=O)CNc2ncc(-c3ccc(-c4nnc[nH]4)nc3C)nc21 [Form A, 1-ethyl-7-(2-methyl-6-(1H-1,2,4-triazol-3-yl)pyridin-3-yl)-3,4-dihydropyrazino[2,3-b]pyrazin-2(1H)-one]",solubility at 24 h,"[3]; 0.1N HCl, simulated gastric fluid",7.1 mg/mL
same,solubility at 24 h,"[3]; 0.9% NaCl, saline or isotonic",0.03 mg/mL
same,solubility at 24 h,"[3]; acetone, organic solvent or mixture",0.46 mg/mL
same,solubility at 24 h,"[3]; acetonitrile, organic solvent or mixture",0.14 mg/mL
same,solubility at 24 h,"[3]; aqueous buffer, Acetate buffer pH 4.0",0.06 mg/mL
same,solubility at 24 h,"[3]; aqueous buffer, Phosphate buffer pH 6.8",0.05 mg/mL
same,solubility at 24 h,"[3]; ethanol, organic solvent or mixture",0.5 mg/mL
same,solubility at 24 h,"[3]; ethyl acetate, organic solvent or mixture",0.32 mg/mL
same,solubility at 24 h,"[3]; heptane, organic solvent or mixture",< 0.005 mg/mL
same,solubility at 24 h,"[3]; isopropanol, organic solvent or mixture",0.28 mg/mL
same,solubility at 24 h,"[3]; methanol, organic solvent or mixture",1.13 mg/mL
same,solubility,"[3]; organic solvent or mixture, Dimethyl Sulfoxide, estimated from visual observation of complete dissolution",> 50 mg/mL
same,solubility at 24 h,"[3]; tetrahydrofuran, organic solvent or mixture",5.5 mg/mL
same,solubility at 24 h,"[3]; Water, room temperature, 24 hours",0.08 mg/mL
same,hygroscopicity,"[1]; DVS, in words",non-hygroscopic; also recorded: not hygroscopic
same,Moisture sorption (wt % at 90% RH),[1],0.4 wt %
same,weight gain,[1]; [6],about 0.2 % w/w
same,weight gain,[1]; [7],about 0.5 % w/w
same,mass gain,[1]; [8],less than 0.35 % w/w
same,mass gain,[1]; [9],about 0.08 % w/w
same,XRPD Result 24 hours,"[4]; equilibration at room temperature, 2-Propanol",Form A
same,XRPD Result 24 hours,"[4]; equilibration at room temperature, Acetone",Form A
same,XRPD Result 24 hours,"[4]; equilibration at room temperature, Acetonitrile",Form A
same,XRPD Result 24 hours,"[4]; equilibration at room temperature, Ethanol",Form A
same,XRPD Result 24 hours,"[4]; equilibration at room temperature, Ethanol/Water (1:1)",Form A
same,XRPD Result 24 hours,"[4]; equilibration at room temperature, Ethyl acetate",Form A
same,XRPD Result 24 hours,"[4]; equilibration at room temperature, Heptane",Form A
same,XRPD Result 24 hours,"[4]; equilibration at room temperature, Methanol",Form A
same,XRPD Result 24 hours,"[4]; equilibration at room temperature, Methyl ethyl ketone",Form A
same,XRPD Result 24 hours,"[4]; equilibration at room temperature, Methyl t-butyl ether",Form A
same,XRPD Result 24 hours,"[4]; equilibration at room temperature, Methylene chloride",Form A
same,XRPD Result 24 hours,"[4]; equilibration at room temperature, Tetrahydrofuran",Form A
same,XRPD Result 24 hours,"[4]; equilibration at room temperature, Toluene",Form A
same,XRPD Result 24 hours,"[4]; equilibration at room temperature, Water",Form A
same,XRPD Result 24 hours,"[4]; equilibration at room temperature, n-Butanol",Form A
same,XRPD Result 24 hours,"[4]; slurry at 50° C., 2-Propanol",Form A
same,XRPD Result 24 hours,"[4]; slurry at 50° C., Acetone",Form A
same,XRPD Result 24 hours,"[4]; slurry at 50° C., Acetonitrile",Form A
same,XRPD Result 24 hours,"[4]; slurry at 50° C., Ethanol",Form A
same,XRPD Result 24 hours,"[4]; slurry at 50° C., Ethanol/Water (1:1)",Form A
same,XRPD Result 24 hours,"[4]; slurry at 50° C., Ethyl acetate",Form A
same,XRPD Result 24 hours,"[4]; slurry at 50° C., Heptane",Form A
same,XRPD Result 24 hours,"[4]; slurry at 50° C., Methanol",Form A
same,XRPD Result 24 hours,"[4]; slurry at 50° C., Methyl ethyl ketone",Form A
same,XRPD Result 24 hours,"[4]; slurry at 50° C., Tetrahydrofuran",Form A
same,XRPD Result 24 hours,"[4]; slurry at 50° C., Toluene",Form A
same,XRPD Result 24 hours,"[4]; slurry at 50° C., Water",Form A
same,XRPD Result 24 hours,"[4]; slurry at 50° C., n-Butanol",Form A
same,XRPD Result,[5]; Methanol,Form A + B
same,XRPD Result,[5]; Tetrahydrofuran,"Amorphous, degraded"
same,XRPD Result,"[2]; slurry in Acetonitrile, seed None, 2 weeks",Form A
same,XRPD Result,"[2]; slurry in EtOH/H2O (1:1), seed Form B, 1 week",Form A
same,XRPD Result,"[2]; slurry in EtOH/H2O (1:1), seed Form C, 1 week",Form A
same,XRPD Result,"[2]; slurry in Ethanol/Water (1:1), seed None, 2 weeks",Form A
same,XRPD Result,"[2]; slurry in H2O, seed Form B, 1 week",Form A
same,XRPD Result,"[2]; slurry in H2O, seed Form C, 7 weeks",Form A + C
same,XRPD Result,"[2]; slurry in H2O, seed None, 2 weeks",Form A
same,XRPD Result,"[2]; slurry in MTBE, seed None, 2 weeks",Form A
same,XRPD Result,"[2]; slurry in MeOH, seed Form B, 1 week",Form A
same,XRPD Result,"[2]; slurry in MeOH, seed Form C, 1 week",Form A
same,XRPD Result,"[2]; slurry in MeOH, seed None, 2 weeks",Form A
"CCN1C(=O)CNc2ncc(-c3ccc(-c4nnc[nH]4)nc3C)nc21 [Form E, 1-ethyl-7-(2-methyl-6-(1H-1,2,4-triazol-3-yl)pyridin-3-yl)-3,4-dihydropyrazino[2,3-b]pyrazin-2(1H)-one]",Moisture sorption (wt % at 90% RH),[1],5.9 wt %
same,weight gain,[1]; [6],about 2.3 % w/w
same,weight gain,[1]; [7],about 5.8 % w/w
same,mass gain,[1]; [8],less than 4 % w/w
same,mass gain,[1]; [9],about 1.1 % w/w
same,XRPD Result,"[2]; slurry in Acetonitrile, seed None, 1 week",Form A
same,XRPD Result,[2]; [10],Form C
"CCN1C(=O)CNc2ncc(-c3ccc(-c4nnc[nH]4)nc3C)nc21 [Form C, 1-ethyl-7-(2-methyl-6-(1H-1,2,4-triazol-3-yl)pyridin-3-yl)-3,4-dihydropyrazino[2,3-b]pyrazin-2(1H)-one]",Moisture sorption (wt % at 90% RH),[1]; listed as C,12.2 wt %
same,XRPD Result,"[2]; slurry in H2O, seed None, 1 week",Form C
same,XRPD Result,[2]; [10],Form C
